Experimental data published in US4767762A, “Tricyclic quinoline and naphthyride antibacterials” (Abbott Laboratories, priority 1986, dated 1988).
≈ marks a conversion by molar mass, not a printed value.

Legend:
Assay in all cases: in vitro antibacterial activity (MIC), conventional agar dilution
Assay type in all cases: cell-based
P. aeruginosa A5007 = conditions: Pseudomonas aeruginosa, brain-heart infusion agar, inoculum 10^4 /plate
Experimental: (§1) The in vitro antibacterial activity is determined by conventional agar dilution procedures. A brain-heart infusion agar medium containing the drug is inoculated with a microbial culture cultivated on a brain-infusion broth (Difco 0037-01-6) at 36° C. for 18 hours and then observes for growth of the microorganism. The minimum concentration at which growth of the microorganism is inhibited is taken as MIC (ug/ml). The inoculum size is 10^4 /plate.

Acinetobacter sp CMX 669 = conditions: CMX669, brain-heart infusion agar, inoculum 10^4 /plate
Experimental: as §1

K. pneumoniae ATCC 8045 = conditions: Klebsiella pneumoniae, ATCC8045, brain-heart infusion agar, inoculum 10^4 /plate
Experimental: as §1

Ent. faecium ATCC 8043 = conditions: Enterococcus faecium, ATCC8043, brain-heart infusion agar, inoculum 10^4 /plate
Experimental: as §1

Stap. epidermis 3519 = conditions: brain-heart infusion agar, inoculum 10^4 /plate
Experimental: as §1

E. coli Juhl = conditions: Escherichia coli, brain-heart infusion agar, inoculum 10^4 /plate
Experimental: as §1

Stap. aureus ATCC-6538p = conditions: Staphylococcus aureus, ATCC6538P, brain-heart infusion agar, inoculum 10^4 /plate
Experimental: as §1

P. stuartii CMX 640 = conditions: Providencia stuartii, CMX640, brain-heart infusion agar, inoculum 10^4 /plate
Experimental: as §1

Strep. Pyogenes EES61 = conditions: Streptococcus pyogenes, brain-heart infusion agar, inoculum 10^4 /plate
Experimental: as §1

[1] = test system: Ent. aerogenes ATCC 13048; conditions: Klebsiella aerogenes, ATCC13048, brain-heart infusion agar, inoculum 10^4 /plate
Experimental: as §1

Compound | MIC (P. aeruginosa A5007) [µg/mL] | MIC (Acinetobacter sp CMX 669) [µg/mL] | MIC (K. pneumoniae ATCC 8045) [µg/mL] | MIC (Ent. faecium ATCC 8043) [µg/mL] | MIC (Stap. epidermis 3519) [µg/mL] | MIC (E. coli Juhl) [µg/mL] | MIC (Stap. aureus ATCC-6538p) [µg/mL] | MIC (P. stuartii CMX 640) [µg/mL] | MIC (Strep. Pyogenes EES61) [µg/mL] | MIC [1] [µg/mL]
CN1CCN(c2cc3c(cc2F)c(=O)c2c(=O)[nH]sc2n3-c2ccc(F)cc2)CC1 [46(a), 9-p-fluorophenyl-6-fluoro-7-(4-methyl-1-piperazinyl)-2,3,4,9-tetrahydroisothiazolo[5,4-b]quinoline-3,4-dione] | 1.56 (≈ 3.64 µM) | 0.2 (≈ 0.467 µM) | 0.1 (≈ 0.233 µM) | 1.56 (≈ 3.64 µM) | 0.2 (≈ 0.467 µM) | 0.2 (≈ 0.467 µM) | 0.01 (≈ 0.0233 µM) | 12.5 (≈ 29.2 µM) | 1.56 (≈ 3.64 µM) | 0.39 (≈ 0.91 µM)
CC1CN(c2cc3c(cc2F)c(=O)c2c(=O)[nH]sc2n3-c2ccc(F)cc2)CCN1 (stereo not drawn) [46(b), 9-p-fluorophenyl-6-fluoro-7-(3-methyl-1-piperazinyl)-2,3,4,9-tetrahydroisothiazolo[5,4-b]quinoline-3,4-dione] | 1.56 (≈ 3.64 µM) | 0.1 (≈ 0.233 µM) | 0.01 (≈ 0.0233 µM) | 0.78 (≈ 1.82 µM) | 0.2 (≈ 0.467 µM) | 0.05 (≈ 0.117 µM) | 0.01 (≈ 0.0233 µM) | 6.2 (≈ 14.5 µM) | 0.78 (≈ 1.82 µM) | 0.02 (≈ 0.0467 µM)
CCn1c2cc(N3CCCC3)c(F)cc2c(=O)c2c(=O)[nH]sc21 [46(bbb), 9-ethyl-6-fluoro-7-(1-pyrrolidinyl)-2,3,4,9-tetrahydroisothiazolo[5,4-b]quinoline-3,4-dione] | 0.2 (≈ 0.6 µM) | 0.2 (≈ 0.6 µM) | 0.05 (≈ 0.15 µM) | 0.2 (≈ 0.6 µM) | 0.02 (≈ 0.06 µM) | 0.05 (≈ 0.15 µM) | 0.01 (≈ 0.03 µM) | > 100 | 1.56 (≈ 4.68 µM) | 0.2 (≈ 0.6 µM)
CCn1c2s[nH]c(=O)c2c(=O)c2cc(F)c(N3CCN(C)CC3)c(F)c21 [46(cc), 9-ethyl-6,8-difluoro-7-(4-methyl-1-piperazinyl)-2,3,4,9-tetrahydroisothiazolo[5,4-b]quinoline-3,4-dione] | 3.1 (≈ 8.15 µM) | 0.1 (≈ 0.263 µM) | 0.05 (≈ 0.131 µM) | 0.39 (≈ 1.03 µM) | 0.2 (≈ 0.526 µM) | 0.1 (≈ 0.263 µM) | 0.1 (≈ 0.263 µM) | 3.1 (≈ 8.15 µM) | 0.78 (≈ 2.05 µM) | 0.2 (≈ 0.526 µM)
CCn1c2s[nH]c(=O)c2c(=O)c2cc(F)c(N3CCNCC3)c(F)c21 [46(dd), 9-ethyl-6,8-difluoro-7-(piperazinyl)-2,3,4,9-tetrahydroisothiazolo[5,4-b]quinoline-3,4-dione] | 0.78 (≈ 2.13 µM) | 0.2 (≈ 0.546 µM) | 0.05 (≈ 0.136 µM) | 0.2 (≈ 0.546 µM) | 0.05 (≈ 0.136 µM) | 0.05 (≈ 0.136 µM) | 0.05 (≈ 0.136 µM) | 0.78 (≈ 2.13 µM) | 0.39 (≈ 1.06 µM) | 0.05 (≈ 0.136 µM)
CC1CN(c2cc3c(cc2F)c(=O)c2c(=O)[nH]sc2n3-c2ccc(F)cc2F)CC1N (stereo not drawn) [46(g), 9-o,p-difluorophenyl-6-fluoro-7-(3-amino-4-methyl-1-pyrrolidinyl)-2,3,4,9-tetrahydroisothiazolo[5,4-b]quinoline-3,4-dione] | 0.78 (≈ 1.75 µM) | 0.1 (≈ 0.224 µM) | 0.1 (≈ 0.224 µM) | 0.2 (≈ 0.448 µM) | 0.1 (≈ 0.224 µM) | 0.05 (≈ 0.112 µM) | 0.05 (≈ 0.112 µM) | 0.39 (≈ 0.874 µM) | 0.78 (≈ 1.75 µM) | 0.1 (≈ 0.224 µM)
CCn1c2cc(N3CCN(C)CC3)c(F)cc2c(=O)c2c(=O)[nH]sc21 [46(l), 9-ethyl-6-fluoro-7-(4-methyl-1-piperazinyl)-2,3,4,9-tetrahydroisothiazolo[5,4-b]quinoline-3,4-dione] | 0.39 (≈ 1.08 µM) | 0.05 (≈ 0.138 µM) | 0.05 (≈ 0.138 µM) | 0.2 (≈ 0.552 µM) | 0.1 (≈ 0.276 µM) | 0.05 (≈ 0.138 µM) | 0.05 (≈ 0.138 µM) | 1.56 (≈ 4.3 µM) | 0.39 (≈ 1.08 µM) | 0.1 (≈ 0.276 µM)
CCn1c2cc(N3CCNCC3)c(F)cc2c(=O)c2c(=O)[nH]sc21 [46(m), 9-ethyl-6-fluoro-7-(1-piperazinyl)-2,3,4,9-tetrhydroisothiazolo[5,4-b]quinoline-3,4-dione] | 0.2 (≈ 0.574 µM) | 0.39 (≈ 1.12 µM) | 0.05 (≈ 0.144 µM) | 0.39 (≈ 1.12 µM) | 0.2 (≈ 0.574 µM) | 0.1 (≈ 0.287 µM) | 0.1 (≈ 0.287 µM) | 0.39 (≈ 1.12 µM) | 0.2 (≈ 0.574 µM) | 0.2 (≈ 0.574 µM)
O=c1[nH]sc2c1c(=O)c1cc(F)c(N3CCC(O)C3)cc1n2C1CC1 (stereo not drawn) [46(ss), 9-cyclopropyl-6-fluoro-7-(3-hydroxy-1-pyrrolidinyl)-2,3,4,9-tetrahydroisothiazolo[5,4-b]quinoline-3,4-dione] | 0.39 (≈ 1.08 µM) | 0.02 (≈ 0.0553 µM) | ≤ 0.005 | 0.2 (≈ 0.553 µM) | 0.01 (≈ 0.0277 µM) | 0.02 (≈ 0.0553 µM) | 0.005 (≈ 0.0138 µM) | 0.78 (≈ 2.16 µM) | 0.39 (≈ 1.08 µM) | 0.05 (≈ 0.138 µM)
CCn1c2cc(N3CCNC(C)C3)c(F)cc2c(=O)c2c(=O)[nH]sc21 (stereo not drawn) [46(ww), 9-ethyl-6-fluoro-7-(3-methyl-1-piperazinyl)-2,3,4,9-tetrahydroisothiazolo[5,4-b]quinoline-3,4-dione] | 0.39 (≈ 1.08 µM) | 0.2 (≈ 0.552 µM) | 0.2 (≈ 0.552 µM) | 0.78 (≈ 2.15 µM) | 0.1 (≈ 0.276 µM) | 0.1 (≈ 0.276 µM) | 0.05 (≈ 0.138 µM) | 1.56 (≈ 4.3 µM) | 0.78 (≈ 2.15 µM) | 0.1 (≈ 0.276 µM)
CCn1c2s[nH]c(=O)c2c(=O)c2cc(F)c(N3CCNC(C)C3)c(F)c21 (stereo not drawn) [46(xx), 9-ethyl-6,8-difluoro-7-(3-methyl-1-piperazinyl)-2,3,4,9-tetrahydroisothiazolo[5,4-b]quinoline-3,4-dione] | 1.56 (≈ 4.1 µM) | 0.1 (≈ 0.263 µM) | 0.005 (≈ 0.0131 µM) | 0.78 (≈ 2.05 µM) | 0.2 (≈ 0.526 µM) | 0.05 (≈ 0.131 µM) | 0.1 (≈ 0.263 µM) | 3.1 (≈ 8.15 µM) | 0.39 (≈ 1.03 µM) | 0.1 (≈ 0.263 µM)
O=c1[nH]sc2c1c(=O)c1cc(F)c(N3CCNCC3)cc1n2-c1ccc(F)cc1 [46(yy), 9-p-fluorophenyl-6-fluoro-7-(1-piperozinyl)-2,3,4,9-tetrahydroisothiazolo[5,4-b]quinoline-3,4-dione] | 0.78 (≈ 1.88 µM) | 0.2 (≈ 0.483 µM) | 0.02 (≈ 0.0483 µM) | 0.78 (≈ 1.88 µM) | 0.2 (≈ 0.483 µM) | 0.05 (≈ 0.121 µM) | 0.1 (≈ 0.241 µM) | 3.1 (≈ 7.48 µM) | 0.78 (≈ 1.88 µM) | 0.1 (≈ 0.241 µM)
O=c1[nH]sc2c1c(=O)c1cc(F)c(N3CCNCC3)cc1n2C1CC1 [46(zz), 9-cyclopropyl-6-fluoro-7-(1-piperazinyl)-2,3,4,9-tetrahydroisothiazolo[5,4-b]quinoline-3,4-dione] | 0.05 (≈ 0.139 µM) | 0.05 (≈ 0.139 µM) | 0.005 (≈ 0.0139 µM) | 0.1 (≈ 0.277 µM) | 0.05 (≈ 0.139 µM) | 0.005 (≈ 0.0139 µM) | 0.02 (≈ 0.0555 µM) | 0.2 (≈ 0.555 µM) | 0.05 (≈ 0.139 µM) | 0.01 (≈ 0.0277 µM)
Cl.NC1CCN(c2cc3c(cc2F)c(=O)c2c(=O)[nH]sc2n3C2CC2)C1 (stereo not drawn) [47(b), 9-cyclopropyl-6-fluoro-7-(3-amino-1-pyrrolidinyl)-2,3,4,9-tetrahydroisothiazolo[5,4-b]quinoline-3,4-dione hydrochloride] | 0.2 | 0.05 | 0.005 | 0.1 | 0.05 | 0.05 | 0.02 | 0.39 | 0.05 | 0.01
CCn1c2s[nH]c(=O)c2c(=O)c2cc(F)c(N3CCC(N)C3)c(F)c21 (stereo not drawn) [47(g), 9-ethyl-6,8-difluoro-7-(3-amino-1-pyrrolidinyl)-2,3,4,9-tetrahydroisothiazolo[5,4-b]quinoline-3,4-dione] | 0.78 (≈ 2.13 µM) | 0.1 (≈ 0.273 µM) | 0.01 (≈ 0.0273 µM) | 0.2 (≈ 0.546 µM) | 0.1 (≈ 0.273 µM) | 0.01 (≈ 0.0273 µM) | 0.05 (≈ 0.136 µM) | 0.78 (≈ 2.13 µM) | 0.78 (≈ 2.13 µM) | 0.02 (≈ 0.0546 µM)
